Assay [1] has as its system LOX human melanoma xenografts. In words: Subcutaneous LOX melanoma xenograft model. The assay is classed as in vivo, mice. On the procedure:
The purpose of this study was to investigate anticancer activity of Compound 106 in a LOX human melanoma xenograft model. LOX human melanoma cells, which carry a BRAF (V600E) mutation, were obtained from the DCTD Tumor Repository (Frederick, Md.). Cells were grown in monolayer cultures in T225 flask with RPMI-1640 growth media at 37° C. in a 5% CO2 humidified incubator. Cells were further cultivated in T225 flasks for the in vivo study. On the day of subcutaneous (s.c.) injections of the cells, growth medium was removed, flasks were washed with PBS, and cells were collected with trypsinization. Cells were washed and centrifuged for 3 minutes, and then resuspended in ice-cold PBS.
Female athymic NU/NU mice were inoculated s.c. with 1×10^6 LOX human melanoma cells. Those animals that developed tumors of approximately 150 mm^3 were selected and randomized to five groups. The study consisted of a vehicle-treated group and four drug-treated groups of 8 mice per group for a total of 40 mice on the first day of treatment. All treatments were initiated on day 6. Compound 106 was administered intravenously (i.v.) on a Q4D×3 (days 6, 10, and 14) dosing schedule at dosages of 5, 10, 20 and 40 mg/kg with a volume of injection of 0.1 mL per 10 g body weight. The control group was treated with vehicle (20% Captisol in water) alone.
The s.c. tumor volumes were measured and animals were weighed twice weekly starting with the first day of treatment. Tumor volume and relative body weight (RBW) were determined as described in Example 12.
The study was terminated fifty-nine days after cancer cell transplantation. For each Compound 106 treatment group, measurements were also terminated when mean tumor volume reached two doublings (4-fold tumor volume) from the first day of treatment.
Animals were treated intravenously on days 6, 10, and 14 (Q4D×3; indicated by arrows in FIG. 11). Tumor measurements on tumor bearing mice in all surviving groups were stopped on day 37. Then, tumor measurements were continued for tumor-free mice in the 10 mg/kg (1/8), 20 mg/kg (5/8), and 40 mg/kg (7/8) Compound 106 treatment groups. The study was terminated on day 59. Asterisks (*) indicate P<0.05 vs. control group.

The test system of another assay is AU-565. The assay is described as follows: Western blotting of response markers. The assay is classed as cell-based. To be noted: resistant cell line AU-565; 24 hours; concentration dependent. How it is done:
(§1) In order to identify markers that could serve as response markers for determining whether a cancer in a subject is sensitive to treatment with a zearalenone analog compound, phospho-ERK, total ERK protein, phospho-pRB, total pRB, and Cyclin D1 protein levels in a cell line sensitive to Compound 106 (e.g., SK-MEL-28) and cell lines resistant to Compound 106 (e.g., AU-565) were examined by Western blotting. 2×10^6 cancer cells (SK-MEL-28 and AU-565) were plated into a 100 mm dish and incubated for two days. Test compound, e.g., Compound 106, was then added to each dish for 24 hours at a concentration ranging from […] to […]. Culture medium was added to the cells as a control. SK-MEL-28 and AU-565 cell lysate proteins were subjected to SDS-PAGE under reducing condition and immunoblotted with an antibody against phospho-ERK1/2 (catalog #9101, Cell Signaling Technology®, Danvers, Mass.), phospho-pRB (catalog #9307, Cell Signaling Technology®, Danvers, Mass.), or Cyclin D1 (catalog #sc-8396, Santa Cruz, Calif.). ERK1 (catalog #sc-93, Santa Cruz, Calif.) or pRb (catalog #sc-102, Santa Cruz, Calif.) antibody was used for the detection of the total amount of protein.
On the technique in general: In western blotting, separated proteins are transferred to a membrane and probed.

For assay [2], the system named is SK-MEL-28. The assay is described as follows: Western blotting of response markers. The format is cell-based. Particulars: sensitive cell line SK-MEL-28, 24 hours. How it is done: as §1
The next assay has as its system SF-295. The assay is described as follows: CellTiter-Glo cell growth assay. The assay is classed as cell-based, human. Particulars: SF-295, BRAF wild-type glioblastoma, elevated pAKT; 10 μmol/L to 0.0003 μmol/L. On the procedure: In order to determine whether Compound 106 resistance is associated with constitutive AKT phosphorylation as a result of activation of the PI3K signaling pathway, a panel of 10 BRAF mutated melanoma cell lines and a BRAF wild-type glioblastoma cancer cell line, SF-295, were tested using different concentrations of Compound 106 ranging from 10 μmol/L to 0.0003 μmol/L.
All assays were performed in a 96 well format. For these cell lines, protein lysates were collected in a separate experiment, which allowed for the evaluation of the constitutive level of AKT phosphorylation and correlation between the level of phosphorylated AKT (pAKT) and Compound 106 sensitivity. Cell growth was assessed using CellTiter-Glo® Luminescent Cell Viability Assay (Promega). Phosphorylated AKT protein was analyzed by Western blotting, with total AKT being used as a loading control.
For orientation: ATP-based viability assays read luminescence as a measure of living cells.

Another assay relates to MDA-MB-435. In words: MTS cell growth inhibition assay. To be noted: Homo sapiens, 96 h, MDA-MB-435 breast, BRAF mutated, four days. The assay is classed as cell-based. On the procedure: (§2) Cell growth inhibition following treatment with a zearalenone analog compound, Compound 106, was assessed in a panel of cancerous cell lines from different tissue types, which carry mutations in BRAF and/or RAS. A panel of 21 cell lines was tested with varying concentrations of Compound 106. All assays were performed in a 96 well format. Cell viability was assessed after four days following treatment. Cell viability was assessed with a MTS Assay (CellTiter96®AqueousOne Solution Cell Proliferation Assay, Promega) in a panel of cell lines carrying no mutations or various BRAF (V600E) and/or RAS mutations to determine the effect of BRAF and RAS genotype on drug sensitivity.

The next assay relates to SK-MEL-3. The assay is described as follows: MTS cell growth inhibition assay. The format is cell-based. Particulars: Homo sapiens, SK-MEL3, 96 h, SK-MEL-3 melanoma, BRAF mutated, four days. On the procedure: as §2
The test system of assay [3] is SK-MEL-28. In words: MTS cell growth inhibition assay. The format is cell-based. Particulars: Homo sapiens, 96 h, SK-MEL-28 melanoma, BRAF mutated, four days. On the procedure:
as §2

The test system of a further assay is Colo-205. In words: MTS cell growth inhibition assay. To be noted: Homo sapiens, 96 h, Colo-205 colorectal, BRAF mutated, four days. The assay is classed as cell-based. On the procedure: as §2
In a further assay the test system is SK-MEL-24. The assay is described as follows: MTS cell growth inhibition assay. The assay is classed as cell-based. Particulars: Homo sapiens, 96 h, SK-MEL-24 melanoma, BRAF mutated, four days. On the procedure:
as §2

The next assay deals with HT-29. In words: MTS cell growth inhibition assay. The assay is classed as cell-based. To be noted: Homo sapiens, 96 h, HT-29 colorectal, BRAF mutated, four days. How it is done: as §2
In another assay the test system is DU4475. In words: MTS cell growth inhibition assay. The format is cell-based. To be noted: Homo sapiens, DU-4475, 96 h, DU4475 breast, BRAF mutated, four days. On the procedure: as §2

What is called IC50 is the concentration that gives 50% inhibition. Higher therefore signals weaker potency. For `CCNc1cc(O)c2c(c1)/C=C/C[C@H](O)[C@H](O)C(=O)/C=C\[C@@H](C)[C@H](C)OC2=O` [Compound 106], the “Tumor-free animals at the end of the study on day 59” value was 1/8 and one in assay [1] (10 mg/kg i.v. Q4D×3); 5/8 and five in assay [1] (20 mg/kg i.v. Q4D×3); 7/8 and seven in assay [1] (40 mg/kg i.v. Q4D×3). Also, the “Anticancer activity (tumor volume vs. control group)” value in assay [1] (10, 20, and 40 mg/kg i.v. Q4D×3) is reported as “statistically significant anticancer activity”. Moreover, the “protein levels of phospho-ERK” value in the assay on AU-565 and in the assay on SK-MEL-28 [2] (concentration dependent) was “inhibited” each time. Also, in the assay with SK-MEL-28 [2], the “Protein levels of p27” value is reported as “increased”. Moreover, in the assay on SK-MEL-28 [2], the phospho-pRB protein entry is listed as “decrease”. In addition, the “protein levels of Cyclin D1” value with SK-MEL-28 [2] was “decreased”. In addition, the “Sensitivity of cell line” value in the assay with SF-295 was “resistant”. Besides, the 50% inhibitory concentration (IC50) with MDA-MB-435, in the assay on SK-MEL-3, with SK-MEL-28 [3], in the assay on Colo-205, with SK-MEL-24 and in the assay with HT-29 was below 100 nM throughout. In the assay on DU4475, this compound came in with an IC50 below 100 nM.

Source of the values: patent US20160291027A1, “METHODS FOR […] ABILITY OF A Z[…] COMPOUND TO TREAT CANCER” (Eisai R&D Management Co., Ltd., priority 2007, published 2016).
